Source: ChEMBL document CHEMBL5634138, “Discovery of a novel BLT2 antagonist for the treatment of inflammatory airway diseases” (Eur J Med Chem, 2023)
Converted amounts (≈) assume the structure as drawn. Blank lines part the entries; values can stand above or below the compound they belong to. The source made the active and inactive calls. No cut-off for these calls is given here.

Experiments:
CHO [1] = assay: (§1) Cytotoxicity against CHO cells assessed as inhibition of cell growth at 10 uM incubated overnight by MTS assay reltive to control; type: toxicity, cell-based, Cricetulus griseus; details: chinese hamster, cho, 10 µM
[2] = as §1; type: toxicity, cell-based, Cricetulus griseus; details: chinese hamster, CHO cells, read-out: Activity
[3] = Metabolic stability in mouse liver microsomes assessed as parent compound remaining measured after 30 mins in presence of […]; type: ADME, Microsome; details: read-out: Stability
CHO [4] = assay: Inhibition of Akt phosphorylation (unknown origin) expressed in CHO cells harbouring BLT2 by Western blot analysis; type: cell-based; details: Homo sapiens
[5] = Solubility of the compound in deionized water; type: physicochemical; details: buffer
[6] = Metabolic stability in mouse liver microsomes assessed as parent compound remaining measured after 30 mins in presence of NADPH; type: ADME, Microsome; details: read-out: Stability
[7] = Metabolic stability in human liver microsomes assessed as parent compound remaining measured after 30 mins in absence of NADPH; type: ADME, Microsome; details: read-out: Stability
[8] = Metabolic stability in mouse liver microsomes assessed as parent compound remaining measured after 30 mins in absence of NADPH; type: ADME, Microsome; details: read-out: Stability
[9] = Metabolic stability in human liver microsomes assessed as parent compound remaining measured after 30 mins in presence of NADPH; type: ADME, Microsome; details: read-out: Stability
[10] = target: Leukotriene B4 receptor 1 (Homo sapiens) (UniProt Q15722); assay: Antagonist activity at human BLT1 expressed in CHO cells assessed as inhibition of LTB4 induced cell migration at 10 uM measured after 3 hrs by chemotaxis assay relative to control; type: cell-based; set-up: scale not given: the % may be the effect or the level left; details: filed as antagonist
Sequence of Leukotriene B4 receptor 1 (Homo sapiens) (Q15722 whole entry): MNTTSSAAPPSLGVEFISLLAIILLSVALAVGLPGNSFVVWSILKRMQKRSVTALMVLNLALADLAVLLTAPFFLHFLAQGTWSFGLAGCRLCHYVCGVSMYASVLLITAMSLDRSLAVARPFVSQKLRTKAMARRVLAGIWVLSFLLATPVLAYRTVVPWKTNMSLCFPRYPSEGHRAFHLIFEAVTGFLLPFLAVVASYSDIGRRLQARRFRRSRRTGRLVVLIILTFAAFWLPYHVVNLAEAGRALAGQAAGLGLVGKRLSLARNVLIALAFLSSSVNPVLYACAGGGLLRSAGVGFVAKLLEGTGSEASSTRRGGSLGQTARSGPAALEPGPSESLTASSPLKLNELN

[11] = Metabolic stability in mouse liver microsomes assessed as parent compound remaining measured after 30 mins in absence of […]; type: ADME, Microsome; details: read-out: Stability
CHO [12] = assay: Inhibition of Akt phosphorylation (unknown origin) expressed in CHO cells harbouring BLT1 by Western blot analysis; type: cell-based; details: Homo sapiens
[13] = Metabolic stability in human liver microsomes assessed as parent compound remaining measured after 30 mins in presence of […]; type: ADME, Microsome; details: read-out: Stability
[14] = Metabolic stability in human liver microsomes assessed as parent compound remaining measured after 30 mins in absence of […]; type: ADME, Microsome; details: read-out: Stability
[15] = AUC infinity in rat at 20 mg/kg, po administered as suspension; type: ADME, organism-based; details: in vivo
Mus musculus [16] = assay: Anti-asthmatic activity against OVA/LPS induced BALB/c mouse model assessed as decrease in bronchoalveolar lavage fluid (BALF) IL-5 level at 20 mg/kg, ip by ELISA method relative to control; type: functional; set-up: scale not given: the % may be the effect or the level left
Mus musculus [17] = assay: Anti-asthmatic activity against OVA/LPS induced BALB/c mouse model assessed as decrease in bronchoalveolar lavage fluid (BALF) IL-4 level at 20 mg/kg, ip by ELISA method relative to control; type: functional; set-up: scale not given: the % may be the effect or the level left
[18] = Cmax in rat at 20 mg/kg, po administered as suspension; type: ADME, organism-based; details: in vivo
[19] = target: T1, Leukotriene B4 receptor 2 (Homo sapiens, UniProt Q9NPC1); assay: Displacement of 3H-LTB4 from human BLT2 expressed in CHO cell membrane assessed as inhibition constant incubated for 60 mins by liquid scintillation counter analysis
T1 sequence (Q9NPC1 whole entry): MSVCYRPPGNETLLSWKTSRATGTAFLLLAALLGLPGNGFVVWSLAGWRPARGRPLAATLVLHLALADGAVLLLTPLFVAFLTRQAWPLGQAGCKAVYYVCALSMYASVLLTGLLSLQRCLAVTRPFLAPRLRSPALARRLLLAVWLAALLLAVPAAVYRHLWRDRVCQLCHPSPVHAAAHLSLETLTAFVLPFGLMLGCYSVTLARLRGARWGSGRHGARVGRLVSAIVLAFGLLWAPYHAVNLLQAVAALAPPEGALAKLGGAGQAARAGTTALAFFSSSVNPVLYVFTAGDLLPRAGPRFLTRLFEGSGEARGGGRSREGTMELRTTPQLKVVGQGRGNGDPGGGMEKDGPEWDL

[20] = Oral bioavailability in rat at 20 mg/kg administered as solution; type: ADME, organism-based; details: in vivo
[21] = target: Leukotriene B4 receptor 1 (Homo sapiens) (UniProt Q15722); assay: Antagonist activity at human BLT1 expressed in CHO cells assessed as inhibition of LTB4 induced cell migration at 10 uM measured after 3 hrs by chemotaxis assay; type: cell-based
Mus musculus [22] = assay: Anti-asthmatic activity against OVA/LPS induced BALB/c mouse model assessed as reduction in bronchial hyper-response at 10 mg/kg, ip for one hr before every challenge on day 14 to 16 and measured after 17 days relative to control; type: functional; set-up: scale not given: the % may be the effect or the level left; details: time 17 day
[23] = AUC infinity in rat at 2 mg/kg, iv; type: ADME, organism-based; details: in vivo
Mus musculus [24] = assay: Anti-asthmatic activity against OVA/LPS induced BALB/c mouse model assessed as decrease in bronchoalveolar lavage fluid (BALF) IL-4 level at 10 mg/kg, ip by ELISA method relative to control; type: functional; set-up: scale not given: the % may be the effect or the level left
[25] = Clearance in rat at 2 mg/kg, iv; type: ADME, organism-based; details: in vivo
[26] = Tmax in rat at 20 mg/kg, po administered as suspension; type: ADME, organism-based; details: in vivo
[27] = Apparent volume of distribution in rat at 2 mg/kg, iv; type: ADME, organism-based; details: in vivo, read-out: Vd(app)
[28] = AUC infinity in rat at 20 mg/kg, po administered as solution; type: ADME, organism-based; details: in vivo
[29] = Cmax in rat at 20 mg/kg, po administered as solution; type: ADME, organism-based; details: in vivo
[30] = Half life in rat at 2 mg/kg, iv; type: ADME, organism-based; details: in vivo
Mus musculus [31] = assay: Anti-asthmatic activity against OVA/LPS induced BALB/c mouse model assessed as decrease in bronchoalveolar lavage fluid (BALF) IL-13 level at 10 mg/kg, ip by ELISA method relative to control; type: functional; set-up: scale not given: the % may be the effect or the level left
[32] = Tmax in rat at 20 mg/kg, po administered as solution; type: ADME, organism-based; details: in vivo
Mus musculus [33] = assay: Anti-asthmatic activity against OVA/LPS induced BALB/c mouse model assessed as decrease in bronchoalveolar lavage fluid (BALF) IL-5 level at 10 mg/kg, ip by ELISA method relative to control; type: functional; set-up: scale not given: the % may be the effect or the level left
[34] = Oral bioavailability in rat at 20 mg/kg administered as suspension; type: ADME, organism-based; details: in vivo
Mus musculus [35] = assay: Anti-asthmatic activity against OVA/LPS induced BALB/c mouse model assessed as decrease in bronchoalveolar lavage fluid (BALF) IL-13 level at 20 mg/kg, ip by ELISA method relative to control; type: functional; set-up: scale not given: the % may be the effect or the level left

SMILES: CCCCC(=O)N(Cc1ccc(-c2ccc(C(=O)O)cc2)cc1)c1ccccc1F
Activity (CHO [1]): Non-Toxic

SMILES: CCCCC(=O)N(Cc1ccc(-c2ccc(OCC(=O)O)cc2)cc1)c1cccc(C(F)(F)F)c1
Activity (CHO [1]): Non-Toxic

SMILES: CCCCC(=O)N(Cc1ccc(-c2cccc(C(=O)O)c2)cc1)c1ccccc1
Activity (CHO [1]): Non-Toxic

SMILES: CCCCC(=O)N(Cc1ccc(-c2ccc(O)cc2)nc1)c1cccc(F)c1
Activity (CHO [1]): Non-Toxic

SMILES: CCCCC(=O)N(Cc1ccc(-c2ccc(C(=O)NCC)cc2)cc1)c1ccccc1
Activity (CHO [1]): Non-Toxic

SMILES: CCCCC(=O)N(Cc1ccc(-c2ccc(C(=O)O)cc2)cc1)c1ccc(F)cc1
Activity (CHO [1]): Non-Toxic

SMILES: CCCCC(=O)N(Cc1ccc(-c2ccc(OC)cc2)cc1)c1cccc(C(F)(F)F)c1
Activity (CHO [1]): Non-Toxic

SMILES: CCCCC(=O)N(Cc1ccc(-c2ccc(O)cc2)cc1)c1cccc(C)c1
inhibition at 10 µM [2]: 24%

SMILES: CCCCC(=O)N(Cc1ccc(-c2ccc(OC)cc2)cc1)c1cccc(F)c1
inhibition at 10 µM [2]: 7%

remaining at 0.5 h [3]: 70.1%
solubility [5]: < 0.02 µg/mL
remaining at 0.5 h [6]: 2.2%
remaining at 0.5 h [7]: 96.8%
remaining at 0.5 h [8]: 84.2%
remaining at 0.5 h [9]: 33.5%
Activity [10]: 90%
remaining at 0.5 h [11]: 90.4%
remaining at 0.5 h [13]: 92.8%
remaining at 0.5 h [14]: 98.8%
SMILES: CCCCC(=O)N(Cc1ccc(-c2ccc(O)cc2)cc1)c1cccc(F)c1
inhibition (CHO [4]): Active
Activity (CHO [1]): Non-Toxic
inhibition (CHO [12]): Active

SMILES: CCCCC(=O)N(Cc1ccc(-c2ccc(C(=O)N3CCN(C)CC3)cc2)cc1)c1ccccc1
Activity (CHO [1]): Non-Toxic

SMILES: CCCCC(=O)N(Cc1ccc(-c2ccc(C(N)=O)cc2)cc1)c1ccccc1
Activity (CHO [1]): Non-Toxic

SMILES: CCCCC(=O)N(Cc1ccc(-c2ccc(C(=O)N3CCN(C(C)C)CC3)cc2)cc1)c1ccccc1
Activity (CHO [1]): Non-Toxic

remaining at 0.5 h [3]: 91.7%
AUC(0-inf) [15]: 1500 ng·h/mL
Cmax [18]: 700 ng/mL
Ki [19]: 132 nM
bioavailability [20]: 35%
Activity [21]: inactive
AUC(0-inf) [23]: 600 ng·h/mL
clearance [25]: 54 mL/min/kg
solubility [5]: 0.033 µg/mL (≈ 0.0758 µM)
remaining at 0.5 h [6]: 67.8%
remaining at 0.5 h [7]: 98.1%
Tmax [26]: 0.9 h
Vd [27]: 4.2 L/kg
AUC(0-inf) [28]: 2200 ng·h/mL
remaining at 0.5 h [8]: 88.3%
remaining at 0.5 h [9]: 74.5%
remaining at 0.5 h [11]: 92.9%
Cmax [29]: 1100 ng/mL
half-life [30]: 1.4 h
Tmax [32]: 1 h
bioavailability [34]: 24%
remaining at 0.5 h [13]: 94%
remaining at 0.5 h [14]: 98.8%
SMILES: CCCCC(=O)N(Cc1ccc(-c2ccc(OCC(=O)O)cc2)cc1)c1cccc(F)c1
Activity (Mus musculus [16]): 46%
Activity (Mus musculus [17]): 35%
Activity (Mus musculus [22]): 59%
inhibition (CHO [4]): Active
Activity (CHO [1]): Non-Toxic
Activity (Mus musculus [24]): 25%
Activity (Mus musculus [31]): 19%
Activity (Mus musculus [33]): 33%
Activity (Mus musculus [35]): 38%

SMILES: CCCCC(=O)N(Cc1ccc(-c2ccc(OC)cc2)cc1)c1ccccc1
Activity (CHO [1]): Non-Toxic

SMILES: CCCCC(=O)N(Cc1ccc(-c2ccc(O)cc2)cc1)c1cccc(C(F)(F)F)c1
inhibition at 10 µM [2]: 5%
